Measurements from patent US11352408B2, “Antitumor peptide having PD-1 signal sequence and utilization thereof” (TOAGOSEI CO.,LTD., priority 2017, dated 2022).
Where two headings read alike, the source gives them in different places. Where a SMILES comes first, the peptide text is derived from it.

What was measured:
[1] = test system: human breast adenocarcinoma cell line (MDA-MB-231); type: cell-based; settings: 48 h
Method: (§1) Some of the sample peptides synthesized in Test Example 1 were evaluated for antitumor activity on several types of cultured tumor cells.
(§2) Specifically, test tumor cells used were currently commercially available human non small cell lung cancer cell line (NCI-H2444), human non small cell lung cancer cell line (HCC827), human alveolar basal epithelial adenocarcinoma cell line (A549), human small cell lung cancer cell line (NCI-H446), human melanoma cell line (A2058) and human breast adenocarcinoma cell line (MDA-MB-231). As a comparison, a commercially available cultured normal human mammary epithelial cell line (MCF-12F) was used.
(§3) (2) human melanoma cell line (A2058) and human breast adenocarcinoma cell line (MDA-MB-231):
(§4) DMEM medium (product from Wako Pure Chemical Industries, Ltd.) containing 2 mM L-glutamine, 0.1 mM non-essential amino acids, 50 units/mL penicillin, 50 μg/mL streptomycin and 10% FBS; and
(§5) The above six cell lines were cultured in each of the media indicated above and the number of cells was adjusted to be approximately 5×10^3 per well in a 96-well plate. The amount of the medium was 100 μL per well.
(§6) The 96-well plate was placed in a CO2 incubator and pre-incubated under conditions of 37° C. and 5% CO2 for approximately one day (21 hours to 24 hours).
(§7) Thereafter, peptide-containing test media were respectively prepared for each concentration so that the concentration of any of the sample peptides to be evaluated was either 12.5 μM or 25 μM, and were supplied to wells (namely, wells after pre-incubation above) in which cells to be evaluated were cultured at 90 μL per well. The 96-well plate was placed back in the CO2 incubator and incubated under conditions of 37° C. and 5% CO2 for 48 hours.
(§8) The number (n) of test wells per each peptide concentration in the test section to which peptides were added was 3. Therefore, the values indicated in the result section in the table hereinbelow are averages of results obtained from 3 test wells. The cell viability (%) was determined as indicated hereinbelow.
(§9) After a 48-hour incubation, the medium in the wells was replaced by 100 μL fresh medium without peptide, and 10 μL of a reagent for cell proliferation measurement “Cell Counting Kit-8” (product from Dojindo Laboratories) containing “water-soluble tetrazolium salt (WST-8)” as a chromogenic reagent was added to each well. The 96-well plate was then placed back in the CO2 incubator and incubated under conditions of 37° C. and 5% CO2 for 1.5 hours to 2 hours.
(§10) After completion of the incubation, the cell culture medium to which the reagent was added was recovered and the cell viability (%) was evaluated by a colorimetric method in which the absorbance at a wavelength of 450 nm (the value corrected with the absorbance at a wavelength 650 nm: A450-A650) due to reduction of the tetrazolium salt was measured. Specifically, the cell viability (%) of each test cell line was calculated from the measured absorbance as a relative value to the measured value (measured absorbance) in the comparative test section in which the incubation over 48 hours as above was carried out only with a medium without peptide, that was regarded as 100% of the cell viability.

[2] = test system: human melanoma cell line (A2058); type: cell-based; settings: 48 h
Method: as §1, §2, §3, §4, §5, §6, §7, §8, §9, §10

[3] = test system: tumor cells tested in the present Test Example; assay: Evaluation test on antitumor activities of synthetic peptides, overall finding; type: cell-based, human; settings: compared to comparative samples 3 to 5
Method: (§11) The cell viability (%) was determined as indicated hereinbelow.

[4] = test system: human non small cell lung cancer cell line (NCI-H2444); assay: Antitumor activity evaluation, cell viability by Cell Counting Kit-8 (WST-8); type: cell-based
Method: as §11

[5] = test system: human non small cell lung cancer cell line (HCC827); assay: as above; type: cell-based
Method: as §11

[6] = test system: human small cell lung cancer cell line (NCI-H446); type: cell-based; settings: 48 h
Method: as §11

[7] = in vitro; type: cell-based; settings: human
Method: (3) cultured normal human mammary epithelial cell line (MCF-12F):
DMEM/F12 medium (product from Wako Pure Chemical Industries, Ltd.) containing 20 ng/mL recombinant EGF, 10 μg/mL insulin, 0.5 μg/mL hydrocortisone and 10% FBS.
as §11

[8] = test system: human alveolar basal epithelial adenocarcinoma cell line (A549); settings: 48 hours, relative to medium without peptide = 100%
Method: as §1, §2
The above six cell lines were cultured in each of the media indicated above and the number of cells was adjusted to be approximately 5×10^3 per well in a 96-well plate. The amount of the medium was 100 μL per well. […]
as §7, with “The 96-well plate was placed back in the CO2 incubator and incubated under conditions of 37° C. and 5% CO2 for 48 hours.” left out
The number (n) of test wells per each peptide concentration in the test section to which peptides were added was 3. […] The cell viability (%) was determined as indicated hereinbelow. […]

CC[C@H](C)[C@H](NC(=O)[C@H](CCC(N)=O)NC(=O)[C@@H](N)CCSC)C(=O)N1CCC[C@H]1C(=O)N[C@@H](CCC(N)=O)C(=O)N[C@@H](C)C(=O)N1CCC[C@H]1C(=O)N[C@@H](Cc1c[nH]c2ccccc12)C(=O)N1CCC[C@H]1C(=O)N[C@H](C(=O)N[C@H](C(=O)N[C@@H](Cc1c[nH]c2ccccc12)C(=O)N[C@@H](C)C(=O)N[C@H](C(=O)N[C@@H](CC(C)C)C(=O)N[C@@H](CCC(N)=O)C(=O)N[C@@H](CC(C)C)C(=O)NCC(=O)N[C@@H](Cc1c[nH]c2ccccc12)C(=O)N[C@@H](CCCNC(=N)N)C(=O)N[C@@H](CCCCN)C(=O)N[C@@H](CCCCN)C(=O)N[C@@H](CCCNC(=N)N)C(=O)N[C@H](C(=O)N[C@@H](CC(C)C)C(=O)N[C@@H](CCCNC(=N)N)C(=O)N[C@@H](CCCCN)C(=O)N[C@@H](CC(N)=O)C(=O)N[C@@H](CC(=O)O)C(=O)N[C@@H](CCCNC(=N)N)C(=O)N[C@@H](CCCCN)C(=O)N[C@@H](CCCCN)C(=O)N[C@@H](CCCNC(=N)N)C(N)=O)[C@@H](C)O)C(C)C)C(C)C)C(C)C [Sample 1] (H-MQIPQAPWPVVWAVLQLGWRKKRTLRKNDRKKR-NH2; N-terminus assumed)
Cell viability (%) ([1]; 12.5 µM): 63.1% | Cell viability (%) ([1]; 25 µM): 9.9% | Cell viability (%) ([2]; 12.5 µM): 50.4% | Cell viability (%) ([2]; 25 µM): 6.7% | antitumor activity (inhibitory activity of proliferation of tumor cells) [3]: excellent antitumor activity | Cell viability (%) ([4]; human, 48 h, 12.5 µM): 59.6% | Cell viability (%) ([4]; human, 48 h, 25 µM): 6.8% | Cell viability (%) ([5]; human, 48 h, 12.5 µM): 49.8% | Cell viability (%) ([5]; human, 48 h, 25 µM): 11.8% | Cell viability (%) ([6]; 12.5 µM): 2.5% | Cell viability (%) ([6]; 25 µM): 0.5% | viability at 48 h, 12.5 µM [7]: 97.4% | viability at 48 h, 25 µM [7]: 62.3%

CC[C@H](C)[C@H](NC(=O)[C@H](CCC(N)=O)NC(=O)[C@@H](N)CCSC)C(=O)N1CCC[C@H]1C(=O)N[C@@H](CCC(N)=O)C(=O)N[C@@H](C)C(=O)N1CCC[C@H]1C(=O)N[C@@H](Cc1c[nH]c2ccccc12)C(=O)N1CCC[C@H]1C(=O)N[C@H](C(=O)N[C@H](C(=O)N[C@@H](Cc1c[nH]c2ccccc12)C(=O)N[C@@H](C)C(=O)N[C@H](C(=O)N[C@@H](CC(C)C)C(=O)N[C@@H](CCC(N)=O)C(=O)N[C@@H](CC(C)C)C(=O)NCC(=O)N[C@@H](Cc1c[nH]c2ccccc12)C(=O)N[C@@H](CCCNC(=N)N)C(=O)N[C@@H](CCCNC(=N)N)C(=O)N[C@@H](CCCCN)C(=O)N[C@@H](CCCCN)C(=O)N[C@@H](CCCNC(=N)N)C(=O)N[C@@H](CCCNC(=N)N)C(=O)N[C@@H](CCC(N)=O)C(=O)N[C@@H](CCCNC(=N)N)C(=O)N[C@@H](CCCNC(=N)N)C(=O)N[C@@H](CCCNC(=N)N)C(N)=O)C(C)C)C(C)C)C(C)C [Sample 2] (H-MQIPQAPWPVVWAVLQLGWRRKKRRQRRR-NH2; N-terminus assumed)
antitumor activity (inhibitory activity of proliferation of tumor cells) [3]: excellent antitumor activity | Cell viability (%) ([4]; NCI-H2444, test peptide concentration 12.5 μM, 48 hours, relative to medium without peptide = 100%): 50.4% | Cell viability (%) ([4]; NCI-H2444, test peptide concentration 25.0 μM, 48 hours, relative to medium without peptide = 100%): 3.6% | Cell viability (%) ([5]; HCC827, test peptide concentration 12.5 μM, 48 hours, relative to medium without peptide = 100%): 62.9% | Cell viability (%) ([5]; HCC827, test peptide concentration 25.0 μM, 48 hours, relative to medium without peptide = 100%): 4.9% | Cell viability (%) ([8]; test peptide concentration 12.5 μM): 52.4% | Cell viability (%) ([8]; test peptide concentration 25.0 μM): 9.1%

CC[C@H](C)[C@H](NC(=O)[C@H](CCCNC(=N)N)NC(=O)[C@@H](N)CCSC)C(=O)N[C@@H](Cc1ccccc1)C(=O)N[C@@H](C)C(=O)N[C@H](C(=O)N[C@@H](Cc1ccccc1)C(=O)N[C@H](C(=O)N[C@@H](Cc1ccccc1)C(=O)N[C@@H](CCSC)C(=O)N[C@H](C(=O)N[C@@H](Cc1ccc(O)cc1)C(=O)N[C@@H](Cc1c[nH]c2ccccc12)C(=O)N[C@@H](Cc1c[nH]cn1)C(=O)N[C@@H](CC(C)C)C(=O)N[C@@H](CC(C)C)C(=O)N[C@@H](CC(N)=O)C(=O)N[C@@H](C)C(=O)N[C@@H](CCCCN)C(=O)N[C@@H](CCCCN)C(=O)N[C@@H](CCCNC(=N)N)C(=O)N[C@H](C(=O)N[C@@H](CC(C)C)C(=O)N[C@@H](CCCNC(=N)N)C(=O)N[C@@H](CCCCN)C(=O)N[C@@H](CC(N)=O)C(=O)N[C@@H](CC(=O)O)C(=O)N[C@@H](CCCNC(=N)N)C(=O)N[C@@H](CCCCN)C(=O)N[C@@H](CCCCN)C(=O)N[C@@H](CCCNC(=N)N)C(N)=O)[C@@H](C)O)[C@@H](C)O)[C@@H](C)CC)C(C)C [Sample 3, reference compound] (H-MRIFAVFIFMTYWHLLNAKKRTLRKNDRKKR-NH2; N-terminus assumed)
Cell viability (%) ([1]; 12.5 µM): 89.3% | Cell viability (%) ([1]; 25 µM): 83.7% | Cell viability (%) ([2]; 12.5 µM): 100.9% | Cell viability (%) ([2]; 25 µM): 87.5% | Cell viability (%) ([4]; human, 48 h, 12.5 µM): 106.3% | Cell viability (%) ([4]; human, 48 h, 25 µM): 87.7% | Cell viability (%) ([5]; human, 48 h, 12.5 µM): 105.4% | Cell viability (%) ([5]; human, 48 h, 25 µM): 120.6% | Cell viability (%) ([6]; 12.5 µM): 67.9% | Cell viability (%) ([6]; 25 µM): 56.7% | viability at 48 h, 12.5 µM [7]: 87.3% | viability at 48 h, 25 µM [7]: 81.7%

CC[C@H](C)[C@H](NC(=O)[C@H](CC(C)C)NC(=O)[C@H](CC(C)C)NC(=O)[C@H](CCSC)NC(=O)[C@H](CCC(N)=O)NC(=O)[C@H](CCC(N)=O)NC(=O)[C@H](CCC(N)=O)NC(=O)[C@@H](NC(=O)[C@@H](NC(=O)[C@@H](NC(=O)[C@@H]1CCCN1C(=O)[C@@H]1CCCN1C(=O)[C@H](Cc1c[nH]c2ccccc12)NC(=O)[C@H](Cc1c[nH]c2ccccc12)NC(=O)[C@H](Cc1c[nH]c2ccccc12)NC(=O)[C@@H]1CCCN1)C(C)C)C(C)C)C(C)C)C(=O)NCC(=O)N[C@@H](C)C(=O)N[C@@H](C)C(=O)N[C@@H](CCCNC(=N)N)C(=O)N[C@@H](CCCCN)C(=O)N[C@@H](CCCCN)C(=O)N[C@@H](CCCNC(=N)N)C(=O)N[C@H](C(=O)N[C@@H](CC(C)C)C(=O)N[C@@H](CCCNC(=N)N)C(=O)N[C@@H](CCCCN)C(=O)N[C@@H](CC(N)=O)C(=O)N[C@@H](CC(=O)O)C(=O)N[C@@H](CCCNC(=N)N)C(=O)N[C@@H](CCCCN)C(=O)N[C@@H](CCCCN)C(=O)N[C@@H](CCCNC(=N)N)C(N)=O)[C@@H](C)O [Sample 4] (H-PWWWPPVVVQQQMLLIGAARKKRTLRKNDRKKR-NH2; N-terminus assumed)
Cell viability (%) ([5]; human, 48 h, 12.5 µM): 110.9% | Cell viability (%) ([5]; human, 48 h, 25 µM): 102.6%

CC(C)C[C@H](NC(=O)[C@@H](NC(=O)[C@H](CCCNC(=N)N)NC(=O)[C@H](CCCCN)NC(=O)[C@@H](N)CCCCN)[C@@H](C)O)C(=O)N[C@@H](CCCNC(=N)N)C(=O)N[C@@H](CCCCN)C(=O)N[C@@H](CC(N)=O)C(=O)N[C@@H](CC(=O)O)C(=O)N[C@@H](CCCNC(=N)N)C(=O)N[C@@H](CCCCN)C(=O)N[C@@H](CCCCN)C(=O)N[C@@H](CCCNC(=N)N)C(N)=O [Sample 5, KKRTLRKNDRKKR-CONH2] (H-KKRTLRKNDRKKR-NH2; N-terminus assumed)
Cell viability (%) ([5]; human, 48 h, 12.5 µM): 106.7% | Cell viability (%) ([5]; human, 48 h, 25 µM): 106.5%
